Results from US12187758B2 (ROME Therapeutics, Inc., priority 2022, dated 2025).
pEC50, pIC50: −log10 of the molar value. Like-named read-outs stand apart in the source and are kept apart here.

Assays:
Assay type in all cases: cell-based
[1] = Mitochondria toxicity assay with PC3 cells, in-cell ELISA COX-1; settings: 5 days treatment
How it was run: (§1)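 This in-cell ELISA was run on fixed, permeabilized PC3 cells after 5-day exposure to titrated compound, with cytotoxicity measured on a duplicate plate. Results are reported as categories A (<1.0 μM) to E (>100.0 μM).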

PC3 cells = experiment: Mitochondria toxicity assay with PC3 cells, cytotoxicity (Cell Titer Glo); settings: Homo sapiens, PC-3, 120 h, 5 days treatment
How it was run: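 Cytotoxicity reported in μM bins, A <1.0 through E >100.0. Measured via Cell Titer Glo luminescence (30 min, room temperature) after 5-day dose-titration treatment of PC3 cells, grown in F-12K/10% FBS, at 37° C, 5% CO2.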

[2] = system: SDH-A (succinate dehydrogenase-A); experiment: Mitochondria toxicity assay with PC3 cells, in-cell ELISA SDH-A; settings: 5 days treatment
How it was run: as §1

THP1-Dual KO-TREX1 cells [3] = experiment: THP1 TREX1 KO inhibition assay (type 1 interferon response); settings: Homo sapiens, 144 h, type 1 interferon (QUANTI-LUC), 1 μM 5-aza-2′-deoxycytidine, six days
How it was run: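 THP1-Dual KO-TREX1 cells were treated with a dose titration of compound, alone or with 1 μM 5-aza-2′-deoxycytidine, for six days at 37 °C. Type 1 interferon was read as secreted luciferase (QUANTI-LUC) in the supernatant, and viability by CellTiter-Glo luminescence.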

human PBMC = experiment: Decitabine-stimulated human PBMC assay; settings: PBMCs, anti-CD3/anti-CD28, decitabine 10 μM, 5 days; FIGS. 3A and 3B
Procedure: EasySep buffer (32 mL, […] Technologies, cat. #20144) was used to dilute 8 mL of LRSC buffy coat (from fresh Leukopak) with gentle mixing. The diluted buffy coat (20 mL) was transferred into each of two SepMate 50 tubes, and the tubes were filled with 15 mL of Lyphoprep ([…], cat. #07851) density gradient. The SepMate tubes were then centrifuged at 1200 G for 10 minutes at room temperature with the brake on. The top layer of supernatant was collected in SepMate tubes by quickly pouring it into a new 50 mL conical tube. The PBMCs were washed with EasySep buffer×2 by centrifuging at 300 G for 5 minutes. The cells were resuspended in 30 mL of EasySep and centrifuged at 100 G for 5 minutes with the brake off, and the platelets were removed. The cells were then resuspended in 6 mL of 1×RBC lysis buffer (Invitrogen) and incubated at 37° C. for 5 minutes. 25 mL of EasySep buffer was then mixed into the tube and centrifuged at 300 G for 5 minutes. The cells were resuspended in 10 mL of EasySep buffer and the cells were then counted with Cellometer (AO/PI). The PBMCs were resuspended in RPMI1640 (ThermoFisher)+ 10% FBS (HyClone)+μ/s at 3×10^6/mL. The PBMCs (100 μL, 300 k PBMCs) were then seeded in a 96-well flat bottom microplate (Corning) that had been precoated with 100 μL of anti-CD3 antibody (10 μg/mL in PBS, Biolegend) or PBS at 4° C., one day before the assay was commenced.
To each well the following solutions were added 1) 100 μL of cells (final cell number per well is 3×10^5 cell/well); 2) 25 μL of anti-CD28 antibody at 6× (5 μg/mL final concentration, Biolegend); 3) 25 μL of decitabine at 6× (10 μM final concentration); and 4) Compound in DMSO was dispensed directly into each well with a d300e digital dispenser (Tecan). The final concentration of DMSO for each well was normalized to 0.3%. The plate was incubated at 37° C. without any agitation for 5 days. Samples were collected 120 hours after incubation to determine IFN-β […] levels using a U-PLEX Human IFN-β Assay Sector (5PL) (MSD, cat. #K151VIK-2).
After 5 days, the plate was spun down at 100×G for 5 minutes. Supernatants (100 μL) were collected for interferon R (IFN-0) analysis using the MSD assay noted above, and any residual supernatant was stored at −80° C.

THP1-Dual KO-TREX1 cells [4] = experiment: THP1 TREX1 KO inhibition assay, combination dosing; settings: Homo sapiens, THP1-Dual, read-out: EC50 of Stampidine
Procedure: Exemplary compounds were tested to determine the effect of combined dosing of two compounds on the type 1 interferon response in THP1 Dual TREX1 KO cells treated with 5-aza-2′-deoxycytidine. Assay procedures and results are described below.
THP1 Dual TREX1 KO cells were purchased from InvivoGen. The THP1-Dual™ KO-TREX1 cells were cultured in RPMI 1640, 10% heat-inactivated fetal bovine serum, 25 mM HEPES, 10 μg/mL blasticidin, and 100 μg/mL Zeocin. THP1-Dual™ KO-TREX1 cells were treated with a dose titration of test compound in the presence of 1 μM 5-aza-2′-deoxycytidine (Sigma, cat #189825). Type 1 Interferon and cell viability were assessed after five days of treatment.
Stock solution of test compounds stampidine and Compound 2 were prepared in DMSO followed by a three-fold dilution in DMSO. The plate was prepared with a matrix of test compound concentrations, with stampidine on the y-axis (final concentrations 3 μM to 0.0003 μM) and Compound 2 on the x-axis (final concentrations 0.3 μM to 0.00003 μM). Additional 50× dilution was prepared in cell culture media for each dilution. 10 μL of diluted test compound was then added to a 384-well plate.
THP1-Dual™ KO-TREX1 cells were treated with 1 μM 5-aza-2′-deoxycytidine. THP1-Dual™ KO-TREX1 cells (50 μL) were added to each well of the 384-well plate containing test compound titration at 10,000 cells/well. Cells were incubated at 37° C., 5% CO2 in a humidified incubator for five days. On day five, 20 μL of cell supernatant was transferred to a 384-well, white-walled plate, followed by addition to each well of 50 μL of QUANTI-LUC solution containing stabilizer. Luminescence was detected on a plate reader according to manufacturer's instructions. Percent inhibition of interferon was calculated using the following analysis: (Average DMSO-Sample)/(Average DMSO-Average 30 μM stampidine)*100.
The remaining cells were assessed for cell viability by adding 30 μl of CellTiter-Glo (Promega, G9683) solution to each well, and placed on a shaker for 10 minutes at room temperature. Luminescence was detected on a plate reader, according to manufacturer's instructions. Percent inhibition of cell viability using CellTiter-Glo was calculated using the following analysis: (Average DMSO−Sample)/(Average DMSO−Average 20 μM viability control reagent)*100.
Combination analysis was performed using the Bivariate Response to Additive Interacting Doses (BRAID) according to Twarog, N. R., et al. Scientific Reports 6:25523 (DOI: 10.1038/srep25523). The best BRAID fit was determined to be k 2.00 (0.583-3.64), where k>0 denotes synergy, k=0 denotes additivity, and k<0 denotes antagonism. Potentiation modeling curves are provided for potentiation of Compound 2 at four concentrations of stampidine (FIG. 7A) and for potentiation of stampidine at four concentrations of Compound 2 (FIG. 7B).

Compound | pIC50 [1] | pIC50 (PC3 cells) | pIC50 [2] | pIC50 (THP1-Dual KO-TREX1 cells [3]) | IFN-β production (human PBMC) | pEC50 (THP1-Dual KO-TREX1 cells [4]; Compound 2 0 μM) | pEC50 (THP1-Dual KO-TREX1 cells [4]; Compound 2 0.0001 μM) | pEC50 (THP1-Dual KO-TREX1 cells [4]; Compound 2 0.001 μM) | pEC50 (THP1-Dual KO-TREX1 cells [4]; Compound 2 0.01 μM)
C#C[C@]1(CO)O[C@@H](n2cnc3c(N)nc(F)nc32)C[C@@H]1O [Compound 23, (2R,3S,5R)-5-(6-amino-2-fluoro-9H-purin-9-yl)-2-ethynyl-2-(hydroxymethyl) tetrahydrofuran-3-ol] | 4.30 to 5.00 | 4.30 to 5.00 | 4.00 to 4.30 | < 6.00 | activated production of IFN-β |  |  |  | 
COC(=O)C(C)NP(=O)(OC[C@@H]1C=C[C@H](n2cc(C)c(=O)[nH]c2=O)O1)Oc1ccc(Br)cc1 (stereo partly drawn) [Stampidine, stampidine, reference compound] |  |  |  |  |  | 6.94 | 6.99 | 7.10 | 7.54
